Assay results as given in ChEMBL document CHEMBL1143870, “A new insight into solid-state conformation of macrolide antibiotics” (Bioorg Med Chem, 2008).

How the values were obtained:
[1] = Lipophilicity, log D at pH 8.0; type: physicochemical; settings: buffer
[2] = Oral bioavailability in human at 500 mg administered as single dose; type: ADME, organism-based; settings: in vivo
[3] = Cmax in human at 500 mg, po administered as single dose; type: ADME, organism-based; design: dose 500 mg, route oral; settings: in vivo
[4] = Tmax in human at 500 mg, po administered as single dose; type: ADME, organism-based; settings: in vivo
Homo sapiens [5] = assay: AUC in human at 500 mg, po administered as single dose; type: ADME, organism-based, Plasma; settings: in vivo
[6] = Elimination half life in human at 500 mg, po administered as single dose; type: ADME, organism-based; settings: in vivo
[7] = Cmax in human at 150 mg, po administered as single dose; type: ADME, organism-based; design: dose 150 mg, route oral; settings: in vivo
[8] = Tmax in human at 150 mg, po administered as single dose; type: ADME, organism-based; settings: in vivo
Homo sapiens [9] = assay: AUC in human at 150 mg, po administered as single dose; type: ADME, organism-based, Plasma; settings: in vivo
[10] = Elimination half life in human at 150 mg, po administered as single dose; type: ADME, organism-based; settings: in vivo
[11] = Oral bioavailability in human at 150 mg administered as single dose; type: ADME, organism-based; settings: in vivo

Q: Which results are given for CC[C@H]1OC(=O)[C@H](C)[C@@H](O[C@H]2C[C@@](C)(OC)[C@@H](O)[C@H](C)O2)[C@H](C)[C@@H](O[C@@H]2O[C@H](C)C[C@H](N(C)C)[C@H]2O)[C@](C)(OC)C[C@@H](C)C(=O)[C@H](C)[C@@H](O)[C@]1(C)O [CLARITHROMYCIN]?
A: logD [1]: 3.9; bioavailability [2]: 55%; Cmax [3]: 2410 ng/mL; Tmax [4]: 2 h; AUC (Homo sapiens [5]): 18.9 mg·h/L; half-life [6]: 294 min

Q: Which bioavailability [2] does the source give for CC[C@H]1OC(=O)[C@H](C)[C@@H](O[C@H]2C[C@](C)(OC)[C@H](O)[C@@H](C)O2)[C@H](C)[C@@H](O[C@@H]2O[C@@H](C)C[C@@H](N(C)C)[C@@H]2O)[C@](C)(O)C[C@@H](C)C(=O)[C@H](C)[C@@H](O)[C@]1(C)O [ERYTHROMYCIN A DIHYDRATE] here?
A: 18%

Q: What about the Cmax [3] of the same molecule?
A: 1900 ng/mL

Q: What about the Tmax [4] of the same molecule?
A: 1 h

Q: And the AUC (Homo sapiens [5])?
A: 5.8 mg·h/L

Q: And the half-life [6]?
A: 90 min

Q: With CC[C@H]1OC(=O)[C@H](C)[C@@H](O[C@H]2C[C@@](C)(OC)[C@@H](O)[C@H](C)O2)[C@H](C)[C@@H](O[C@@H]2O[C@H](C)C[C@H](N(C)C)[C@H]2O)[C@](C)(O)C[C@@H](C)/C(=N\OCOCCOC)[C@H](C)[C@@H](O)[C@]1(C)O [ROXITHROMYCIN] as the molecule, how does the Cmax [7] read?
A: 7900 ng/mL

Q: And the Tmax [8]?
A: 2.2 h

Q: What about the AUC (Homo sapiens [9]) of the same molecule?
A: 81 mg·h/L

Q: What about the half-life [10] of the same molecule?
A: 630 min

Q: What about the logD [1] of the same molecule?
A: 2.5

Q: And the bioavailability [11]?
A: 72%
